Like-named read-outs stand apart in the source and are kept apart here.
Key:
H460 cells = assay: Alamar Blue antiproliferation assay, H460 cell line; format: cell-based, human
Procedure: (§1) To determine the effect of the compounds of the present invention on cell proliferation, the antiproliferative activity of these compounds was tested in a multi-well Alamar Blue based assay (at 2 h and 3 days). Cell growth in the presence and absence of the test compound as tabulated in Table 1 was compared, as measured by a fluorescence plate reader at excitation 550 nm and emission 590 nm (see Biosource International Inc., Tech Application Notes, Use of Alamar Blue in the measurement of Cell Viability and Toxicity, Determining IC50). H460 cells (ATCC HTB-177 ([…]), 4,000 cells/well/200 μl) and LNCap cells (ATCC CRL-1740, 6,000 cells/well/200 μl) were seeded in a 96 well plate in RPMI medium (Invitrogen Corporation, Carlsbad, Calif.). After 24 hours, these plates were divided into 3 groups—Control group, 2 h treatment group and 3 day treatment group.
(§2) In the 2 h treatment group, after 2 h the cells were rinsed to remove the test compound and incubated for 3 days, followed by staining with AlamarBlue. The cells in the 3-day treatment group were incubated for 3 days, followed by staining with AlamarBlue. In the Control group, AlamarBlue was added to the plate at (i) day 0 and (ii) day 3 and measured to establish the control reading. In all the groups, the capacity of the cells to proliferate was measured 6 hours after addition of AlamarBlue by a fluorescence plate reader at excitation 550 nm and emission 590 nm.

[1] = Metabolic stability in mouse liver microsomes; format: in vitro ADME; settings: 5 μM, 1 mg/mL protein, NADPH, 37° C.
Procedure: An in vitro assessment of metabolic stability of compounds was performed using commercially available mouse liver microsomes (MLM) containing cytochrome P450 enzymes (Cedra Corp, Austin, Tex.). A solutions (5 μM) of a compound and microsomes (1 mg/mL protein) was prepared. P450 enzymatic reactions were initiated by adding an NADPH solution. Enzymatic reactions were carried out in a thermostated shaking water bath kept at 37° C. Fifty μl of the reaction mixture was withdrawn immediately and 30 minutes after the addition of the NADPH solution and the proteins were precipitated with acetonitrile. The clear supernatant was analyzed by reversed phase LC-MS/MS (Applied Biosystems API-3000 with Hypersil-BDS C18 column and gradient elution), with internal standard area ratio quantification for the amount the compound remaining as shown in table 4.

MES-SA = assay: Alamar Blue antiproliferation assay, MES-SA; format: cell-based; settings: 3 Day
MES-SA/DX5 = assay: Alamar Blue antiproliferation assay, MES-SA/DX5; format: cell-based; settings: MES-SA/DX5, 3 Day
HT29 = assay: Alamar Blue antiproliferation assay, HT29; format: cell-based; settings: HT29, 3 Day
T47D = assay: Alamar Blue antiproliferation assay, T47D; format: cell-based; settings: 3 Day
cancer cell = assay: Cancer cell antiproliferation assay (cell line not stated); format: cell-based; settings: summary statement; read-out: GI50 or IC50 in a cancer cell antiproliferation assay
Procedure: In one aspect, the present invention provides a compound of formula (I-VII) having a GI50, GI90, IC50, or IC50 of about 0.001 to about 1000 nM, about 0.01 to about 100 nm, about 0.1 to about 50 nM, and about 1 to about 10 nM in a cancer cell antiproliferation assay. In one embodiment, the present invention provides a compound of formula (I) having a GI50 or IC50 of about 0.01 to about 100 nm, about 0.1 to about 50 nm, and about 1 to about 10 nm in a cancer cell antiproliferation assay. In various embodiments, said antiproliferation assays employ cancer cell including but not limited to gastric, colon, breast, and non-small cell lung cancer. In various embodiments, the […] cancer cell used is MESSA or doxorubicin resistant MESSA/DX5 cell; the colon cancer cell is HT29 cell; the breast cancer cell is T47D cell; and the non-small cell lung cancer cell is H460 cell.
as §1, §2

Plasma stability = format: in vitro ADME; settings: mouse plasma, 5 μM, 37° C.
Procedure: For an assessment of plasma stability of compounds, commercially available mouse plasma (Bioreclamation, Hicksville, N.Y.) was added to a DMSO solution of a compound, to a concentration of 5 μM. The reaction mixture (50 μl) was withdrawn immediately and after 30 minutes at 37° C., proteins were precipitated with acetonitrile. The clear supernatant was analyzed by reversed phase LC-MS/MS and the amount the compound remaining quantified as shown in table 4.

H460 xenograft = H460 xenograft mouse model; format: in vivo; settings: day 21; taxol alone 10 mg/kg daily; treatment began at 150 mm^3 tumor volume
Procedure: Female CB17/SCID mice (purchased from Taconic, Oxnard, Calif.), 7-8 weeks of age, were allowed to acclimatize for at least three days, and handled under pathogen-free conditions. Human non-small cell lung cancer cell line […] was obtained from the American Type Culture Collection. The cell lines were cultured in RPMI 1640 media supplemented with 10% fetal bovine serum. Cells were maintained in a 37° C. incubator with 5% CO2. The H460 cells were harvested from culture and inoculated at 1×10^6 cells/animal in the […] subcutaneous space. […] Taxol was administered approximately 2-3 hours before that of compound 30.
The body weight of each mouse was recorded twice per week (FIG. 1). […] One animal in the treatment group was found dead on day 18, and two were found dead on day 22 in the combination group.
FIG. 2 graphically illustrates the mean tumor volume for each treatment group. Growth of each xenograft was monitored by externally measuring tumors in two dimensions using a digital caliper twice per week. Tumor volume (V) was determined by the following equation: V=(L×W^2)/2, where L is the length and W is the width of a xenograft. Tumor volumes were measured twice weekly. On day 11, the Treated/Control (T/C) ratio was 65% and 52% in the treatment and combination groups, respectively. At the final measurement (day 22), the T/C ratio for the treatment and combination groups respectively were 43% and 19%.

[2] = Homo sapiens, NCI-H460, 2 h treatment, then 3 days incubation, read-out: GI50 (nM) 2 Hour
[3] = Homo sapiens, NCI-H460, 72 h, 3 day treatment, read-out: GI50 (nM) 3 Days

SMILES	GI50 (H460 cells; [2]) [nM]	GI50 (H460 cells; [3]) [nM]	Metabolic stability (MLM, % remaining at 30 min) [1] [%]	GI50 (MES-SA; Homo sapiens, 72 h) [nM]	GI50 (MES-SA/DX5; Homo sapiens, 72 h) [nM]	GI50 (HT29; Homo sapiens, HT-29, 72 h) [nM]	GI50 (T47D; Homo sapiens, 72 h) [nM]	IC50 (cancer cell) [nM]	other results
COc1cc(C(=O)c2n[nH]c3c(C(N)=O)c(OC)ccc23)cc(OC)c1OC [Compound 60]	> 1000	25.1	94 ± 4	–	–	–	–	–	–
COc1cc(C(=O)c2n[nH]c3c(C#CC(C)O)c(OC)ccc23)cc(OC)c1OC (stereo not shown) [Compound 66]	–	10	88 ± 11	15.8	10	12.6	6.3	1 to 50	–
C#Cc1c(OC)ccc2c(C(=O)c3cc(OC)c(OC)c(OC)c3)n[nH]c12 [Compound 72]	–	1.3	40 ± 9	1.9	3.9	1.6	6.3	1 to 50	Plasma stability (% remaining at 30 min) (Plasma stability): 105%
CC(=O)O[C@H]1C(=O)[C@@]2(C)[C@H]([C@H](OC(=O)c3ccccc3)[C@]3(O)C[C@H](OC(=O)[C@H](O)[C@@H](NC(=O)c4ccccc4)c4ccccc4)C(C)=C1C3(C)C)[C@]1(OC(C)=O)CO[C@@H]1C[C@@H]2O [taxol, paclitaxel, reference compound]	–	–	–	–	–	–	–	–	TIC, tumor volume (H460 xenograft): 56%

Continued, in another order:

GI50 (H460 cells; [2]) [nM]	GI50 (H460 cells; [3]) [nM]	Metabolic stability (MLM, % remaining at 30 min) [1] [%]	SMILES	GI50 (MES-SA; Homo sapiens, 72 h) [nM]	GI50 (MES-SA/DX5; Homo sapiens, 72 h) [nM]	GI50 (HT29; Homo sapiens, HT-29, 72 h) [nM]	GI50 (T47D; Homo sapiens, 72 h) [nM]	IC50 (cancer cell) [nM]	other results
> 10000	15.8	28 ± 6	COc1cc(C(=O)c2n[nH]c3c(C#N)c(OC)ccc23)cc(OC)c1OC [Compound 58]	–	–	–	–	–	–
–	–	17 ± 4	COc1cc(C(=O)c2n[nH]c3c(C#Cc4ccccn4)c(OC)ccc23)cc(OC)c1OC [Compound 68]	–	–	–	–	–	GI50 (H460 cells; 3 day treatment, read-out: GI50 (nM) 3 Days): 1.4 nM; GI50 (MES-SA): 1.6 nM; GI50 (MES-SA/DX5): 1.9 nM; GI50 (HT29): 1.6 nM; GI50 (T47D): 1.6 nM

Reference: US20090042820A1, “Tubulin Binding Anti Cancer Agents And Prodrugs Thereof” (Threshold Pharmaceuticals, Inc., priority 2004, published 2009)
